Measured values from PMC9864330, “Two New Alkaloids and a New Butenolide Derivative from the Beibu Gulf Sponge-Derived Fungus Penicillium sp. SCSIO 41413” (Marine Drugs, 2022).

Biological target: PI3K (phosphatidylinositol 3-kinase)
Assay: PI3K enzyme activity assay, dose response […]
Assay type: biochemical

Compound	IC50
O=C1OC(O)C(Cc2ccc(O)cc2)=C1c1ccc(O)c(O)c1 (racemic) [compound 12, 8-hydroxyhelvafuranone]	9.8 µM
O=C1OCC(Cc2ccc(O)c(O)c2)=C1c1ccc(O)c(O)c1 [compound 11, eutypoid F]	1.7 µM
